Data published in ChEMBL document CHEMBL4431352, “Structure-activity relationship of Garcinia xanthones analogues: Potent Hsp90 inhibitors with cytotoxicity and antiangiogenesis activity” (Bioorg Med Chem, 2016).
One block for each compound: values may come before it. Active and inactive are the calls of the source. The calls are words filed in the database; no cut-off is given here.

Columns and labels:
[1] = target: T1, Heat shock protein HSP 90-alpha (Homo sapiens, UniProt P07900); experiment: Inhibition of 6x-His tagged human recombinant full length Hsp90alpha ATPase preincubated for 0.5 hrs followed by ATP addition measured after 30 mins by HTRF assay
[2] = target: T2, Heat shock protein HSP90 (Homo sapiens) (UniProt P07900+P08238); experiment: Inhibition of Hsp90 in HUVEC assessed as downregulation of 1% hypoxia-induced HIF-1alpha expression measured over 8 hrs by Western blot analysis; assay type: cell-based
[3] = target: T1, Heat shock protein HSP 90-alpha; experiment: Binding affinity to human recombinant full length biotinylated Hsp90alpha assessed as equilibrium dissociation constants by biolayer interferometric analysis
[4] = target: T1, Heat shock protein HSP 90-alpha; experiment: Binding affinity to human recombinant full length Hsp90alpha assessed as change in melting temperature at 125 uM by fluorescence assay
[5] = target: T1, Heat shock protein HSP 90-alpha; experiment: Binding affinity to human recombinant full length Hsp90alpha assessed as change in melting temperature at 250 uM by fluorescence assay
[6] = target: T1, Heat shock protein HSP 90-alpha; experiment: Binding affinity to human recombinant full length Hsp90alpha assessed as change in melting temperature at 500 uM by fluorescence assay
[7] = target: T1, Heat shock protein HSP 90-alpha; experiment: Binding affinity to human recombinant full length Hsp90alpha assessed as change in melting temperature at 1 mM by fluorescence assay
HUVEC [8] = experiment: Antiangiogenic activity against HUVEC assessed as inhibition of VEGF-induced cell migration incubated for 24 hrs by wound healing assay; assay type: functional, cell-based; details: Homo sapiens
HUVEC [9] = experiment: Antiangiogenic activity against inactivated HUVEC assessed as inhibition of tube formation at 0.25 uM incubated for 6 hrs by matrigel assay; assay type: functional, cell-based; details: Homo sapiens
[10] = target: T2, Heat shock protein HSP90 (Homo sapiens); experiment: Inhibition of Hsp90 in HUVEC assessed as repression of 1% hypoxia-induced VEGF mRNA expression at 0.1 uM measured over 8 hrs by RT-PCR analysis; assay type: cell-based
[11] = target: T2, Heat shock protein HSP90 (Homo sapiens); experiment: Inhibition of Hsp90 in HUVEC assessed as repression of 1% hypoxia-induced […] mRNA expression at 0.1 uM measured over 8 hrs by RT-PCR analysis; assay type: cell-based
[12] = target: T2, Heat shock protein HSP90 (Homo sapiens); experiment: Inhibition of Hsp90 in HUVEC assessed as repression of 1% hypoxia-induced Glut1 mRNA expression at 0.1 uM measured over 8 hrs by RT-PCR analysis; assay type: cell-based
MCF7 = experiment: Antiproliferative activity against human MCF7 cells assessed as growth inhibition by MTT assay; assay type: functional, cell-based
A549 = experiment: Antiproliferative activity against human A549 cells assessed as growth inhibition by MTT assay; assay type: functional, cell-based
SK-BR-3 [13] = experiment: Antiproliferative activity against human SK-BR-3 cells assessed as growth inhibition by MTT assay; assay type: functional, cell-based
HT-29 = experiment: Antiproliferative activity against human HT-29 cells assessed as growth inhibition by MTT assay; assay type: functional, cell-based
PC-3 = experiment: Antiproliferative activity against human PC3 cells assessed as growth inhibition by MTT assay; assay type: functional, cell-based
HepG2 = experiment: Antiproliferative activity against human HepG2 cells assessed as growth inhibition by MTT assay; assay type: functional, cell-based
[14] = target: T2, Heat shock protein HSP90 (Homo sapiens); experiment: Inhibition of Hsp90 in human SK-BR-3 cells assessed as downregulation of Akt after 24 hrs by Western blot analysis; assay type: cell-based
[15] = target: T2, Heat shock protein HSP90 (Homo sapiens); experiment: Inhibition of Hsp90 in human SK-BR-3 cells assessed as downregulation of ERK1/2 after 24 hrs by Western blot analysis; assay type: cell-based
SK-BR-3 [16] = experiment: Induction of apoptosis in human SK-BR-3 cells assessed as dead cells at 0.25 uM after 48 hrs by annexin v/PI-staining based flow cytometry (Rvb =1.3%); assay type: functional
SK-BR-3 [17] = experiment: Induction of apoptosis in human SK-BR-3 cells assessed as late apoptotic cells at 0.25 uM after 48 hrs by annexin v/PI-staining based flow cytometry (reference value: 6.2%); assay type: functional
SK-BR-3 [18] = experiment: Induction of apoptosis in human SK-BR-3 cells assessed as early apoptotic cells at 0.25 uM after 48 hrs by annexin v/PI-staining based flow cytometry (reference value: 3.3%); assay type: functional
SK-BR-3 [19] = experiment: Induction of apoptosis in human SK-BR-3 cells assessed as live cells at 0.25 uM after 48 hrs by annexin v/PI-staining based flow cytometry (reference value: 89.2%); assay type: functional
SK-BR-3 [20] = experiment: Induction of apoptosis in human SK-BR-3 cells assessed as dead cells at 0.5 uM after 48 hrs by annexin v/PI-staining based flow cytometry (Rvb =1.3%); assay type: functional
SK-BR-3 [21] = experiment: Induction of apoptosis in human SK-BR-3 cells assessed as late apoptotic cells at 0.5 uM after 48 hrs by annexin v/PI-staining based flow cytometry (reference value: 6.2%); assay type: functional
SK-BR-3 [22] = experiment: Induction of apoptosis in human SK-BR-3 cells assessed as early apoptotic cells at 0.5 uM after 48 hrs by annexin v/PI-staining based flow cytometry (reference value: 3.3%); assay type: functional
SK-BR-3 [23] = experiment: Induction of apoptosis in human SK-BR-3 cells assessed as live cells at 0.5 uM after 48 hrs by annexin v/PI-staining based flow cytometry (reference value: 89.2%); assay type: functional
SK-BR-3 [24] = experiment: Induction of apoptosis in human SK-BR-3 cells assessed as dead cells at 1 uM after 48 hrs by annexin v/PI-staining based flow cytometry (Rvb =1.3%); assay type: functional
SK-BR-3 [25] = experiment: Induction of apoptosis in human SK-BR-3 cells assessed as late apoptotic cells at 1 uM after 48 hrs by annexin v/PI-staining based flow cytometry (reference value: 6.2%); assay type: functional
SK-BR-3 [26] = experiment: Induction of apoptosis in human SK-BR-3 cells assessed as early apoptotic cells at 1 uM after 48 hrs by annexin v/PI-staining based flow cytometry (reference value: 3.3%); assay type: functional
SK-BR-3 [27] = experiment: Induction of apoptosis in human SK-BR-3 cells assessed as live cells at 1 uM after 48 hrs by annexin v/PI-staining based flow cytometry (reference value: 89.2%); assay type: functional
SK-BR-3 [28] = experiment: Induction of apoptosis in human SK-BR-3 cells assessed as dead cells after 48 hrs by annexin v/PI-staining based flow cytometry (Rvb =1.3%); assay type: functional, cell-based
SK-BR-3 [29] = experiment: Induction of apoptosis in human SK-BR-3 cells assessed as late apoptotic cells after 48 hrs by annexin v/PI-staining based flow cytometry (reference value: 6.2%); assay type: functional, cell-based
SK-BR-3 [30] = experiment: Induction of apoptosis in human SK-BR-3 cells assessed as early apoptotic cells after 48 hrs by annexin v/PI-staining based flow cytometry (reference value: 3.3%); assay type: functional, cell-based
SK-BR-3 [31] = experiment: Induction of apoptosis in human SK-BR-3 cells assessed as live cells after 48 hrs by annexin v/PI-staining based flow cytometry (reference value: 89.2%); assay type: functional, cell-based
[32] = target: T2, Heat shock protein HSP90 (Homo sapiens); experiment: Inhibition of Hsp90 in human SK-BR-3 cells assessed as upregulation of Hsp70 at 0.02 to 0.2 uM after 24 hrs by Western blot analysis; assay type: cell-based
SK-BR-3 [33] = experiment: Induction of apoptosis in human SK-BR-3 cells assessed as increase in caspase activity after 48 hrs by fluorimetric assay; assay type: functional, cell-based
SK-BR-3 [34] = experiment: Induction of apoptosis in human SK-BR-3 cells assessed as nuclear condensation at 0.25 to 1 uM after 48 hrs by DAPI staining-based fluorescence analysis; assay type: functional, cell-based
SK-BR-3 [35] = experiment: Induction of apoptosis in human SK-BR-3 cells assessed as apoptotic body formation at 0.25 to 1 uM after 48 hrs by DAPI staining-based fluorescence analysis; assay type: functional, cell-based
SK-BR-3 [36] = experiment: Induction of cell morphological changes in human SK-BR-3 cells assessed as cell distortion at 0.25 to 1 uM after 48 hrs by DAPI staining-based fluorescence analysis; assay type: functional
SK-BR-3 [37] = experiment: Induction of cell morphological changes in human SK-BR-3 cells assessed as cell membrane blebbing at 0.25 to 1 uM after 48 hrs by DAPI staining-based fluorescence analysis; assay type: functional
SK-BR-3 [38] = experiment: Induction of cell morphological changes in human SK-BR-3 cells assessed as cell shrinkage at 0.25 to 1 uM after 48 hrs by DAPI staining-based fluorescence analysis; assay type: functional
SK-BR-3 [39] = experiment: Induction of apoptosis in human SK-BR-3 cells after 48 hrs by annexin V/PI-staining based flow cytometry; assay type: functional, cell-based

Structure (SMILES): CC(=O)Oc1cccc2c1C(=O)C1=CC3CC4C(C)(C)OC(CC=C(C)C)(C3=O)C14O2 (stereo not given)
IC50 [1]: 42.4 µM

Structure (SMILES): CC(C)=CCC12OC(C)(C)C3CC(C=C4C(=O)c5c(O)cc(O)cc5OC431)C2=O (stereo not given)
IC50 [1]: 22.4 µM

Structure (SMILES): COc1cccc2c1C(=O)C1=CC3CC4COC(CC=C(C)C)(C3=O)C14O2 (stereo not given)
IC50 [1]: 54.7 µM

Structure (SMILES): CC(C)=CCC12OC(C)(C)C3CC(C=C4C(=O)c5c(cccc5OS(C)(=O)=O)OC431)C2=O (stereo not given)
IC50 [1]: 67.1 µM

Structure (SMILES): CC(C)=CCC12OC(C)(C)C3CC(C=C4C(=O)c5c(OCC(=O)O)cccc5OC431)C2=O (stereo not given)
IC50 [1]: > 100 µM

Structure (SMILES): C/C(=C\CC12OCC3CC(C=C4C(=O)c5c(O)cccc5OC431)C2=O)CO (stereo not given)
inhibition [2]: Dose-dependent effect
IC50 [1]: 3.68 µM
Kd [3]: 38 µM
ΔTm [4]: 0.95 °C
ΔTm [5]: 1.64 °C
ΔTm [6]: 2.12 °C
ΔTm [7]: 4.7 °C
Activity (HUVEC [8]): Dose-dependent effect
inhibition (HUVEC [9]): Active
inhibition [10]: Active
inhibition [11]: Active
inhibition [12]: Active
IC50 (MCF7): 2.89 µM
IC50 (A549): 3.25 µM
IC50 (SK-BR-3 [13]): 1.92 µM
IC50 (HT-29): 3.02 µM
IC50 (PC-3): 2.16 µM
IC50 (HepG2): 3.34 µM
inhibition [14]: Dose-dependent effect
inhibition [15]: Dose-dependent effect
Activity (SK-BR-3 [16]): 0.95%
Activity (SK-BR-3 [17]): 13.4%
Activity (SK-BR-3 [18]): 7.5%
Activity (SK-BR-3 [19]): 78.15%
Activity (SK-BR-3 [20]): 2.35%
Activity (SK-BR-3 [21]): 21.45%
Activity (SK-BR-3 [22]): 16.65%
Activity (SK-BR-3 [23]): 59.58%
Activity (SK-BR-3 [24]): 5.7%
Activity (SK-BR-3 [25]): 35.7%
Activity (SK-BR-3 [26]): 8.6%
Activity (SK-BR-3 [27]): 50%
Activity (SK-BR-3 [28]): Dose-dependent effect
Activity (SK-BR-3 [29]): Dose-dependent effect
Activity (SK-BR-3 [30]): Dose-dependent effect
Activity (SK-BR-3 [31]): Dose-dependent effect
inhibition [32]: inactive
Activity (SK-BR-3 [33]): Dose-dependent effect
Activity (SK-BR-3 [34]): Active
Activity (SK-BR-3 [35]): Active
Activity (SK-BR-3 [36]): Active
Activity (SK-BR-3 [37]): Active
Activity (SK-BR-3 [38]): Active
Activity (SK-BR-3 [39]): Dose-dependent effect

The next lines start with the values.

IC50 [1]: 6.2 µM
Structure (SMILES): C/C(=C\CC12OCC3CC(C=C4C(=O)c5c(O)cccc5OC431)C2=O)CCl (stereo not given)

IC50 [1]: 43 µM
Structure (SMILES): C/C(=C\CC12OCC3CC(C1=O)C1OC14C(=O)c1c(O)cccc1OC324)CC(=O)O (stereo not given)

IC50 [1]: 8.52 µM
Structure (SMILES): C=CCC12OCC3CC(C=C4C(=O)c5c(O)cccc5OC431)C2=O (stereo not given)

IC50 [1]: 13.6 µM
Structure (SMILES): CC(C)=CCC12OCC3CC(C=C4C(=O)c5c(cccc5OS(C)(=O)=O)OC431)C2=O (stereo not given)

IC50 [1]: 52.7 µM
Structure (SMILES): CC(=O)Oc1cccc2c1C(=O)C1=CC3CC4COC(CC=C(C)C)(C3=O)C14O2 (stereo not given)

IC50 [1]: 15.3 µM
Structure (SMILES): C/C(=C\CC12OC(C)(C)C3CC(C=C4C(=O)c5c(O)cccc5OC431)C2=O)CCl (stereo not given)
